This passage reports T/C results from PubChem BioAssay AID328 (DTP/NCI, 2004).

The assay concerns BDF1 mice, P388 leukemia ip, median survival T/C. Nature of the assay: NCI In Vivo Anticancer Drug Screen. Data for tumor model P388 Leukemia (intraperitoneal) in B6D2F1 (BDF1) mice. To be noted: endpoint: median survival time, higher = longer survival. The essentials:
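Steps: implant the tumour, treat one group with compound and another with vehicle, record survival, then divide treated by control.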

Setting [1] is: dose: 12.5 mg/kg/injection, schedule: Q01DX009 (ip), vehicle: Klucel (hydroxypropylcellulose) (HPC).
Where [2] appears, read: dose: 25.0 mg/kg/injection, schedule: Q01DX009 (ip), vehicle: Klucel (hydroxypropylcellulose) (HPC).
[3] abbreviates: dose: 50.0 mg/kg/injection, schedule: Q01DX009 (ip), vehicle: Klucel (hydroxypropylcellulose) (HPC).
Where [4] appears, read: dose: 100.0 mg/kg/injection, schedule: Q01DX009 (ip), vehicle: Klucel (hydroxypropylcellulose) (HPC).
[5] abbreviates: dose: 400.0 mg/kg/injection, schedule: Q04DX003 (ip), vehicle: saline.
[6] abbreviates: dose: 50.0 mg/kg/injection, schedule: Q04DX003 (ip), vehicle: saline with Tween-80.
The mark [7] stands for this setting: dose: 100.0 mg/kg/injection, schedule: Q04DX003 (ip), vehicle: saline with Tween-80.
Setting [8] is: dose: 200.0 mg/kg/injection, schedule: Q04DX003 (ip), vehicle: saline with Tween-80.
The mark [9] stands for this setting: dose: 400.0 mg/kg/injection, schedule: Q04DX003 (ip), vehicle: saline with Tween-80.
Where [10] appears, read: dose: 100.0 mg/kg/injection, schedule: Q01DX009 (ip), vehicle: saline with Tween-80.
The mark [11] stands for this setting: dose: 200.0 mg/kg/injection, schedule: Q01DX009 (ip), vehicle: saline with Tween-80.
Setting [12] is: dose: 200.0 mg/kg/injection, schedule: Q01DX009 (ip), vehicle: Klucel (hydroxypropylcellulose) (HPC).
Where [13] appears, read: dose: 50.0 mg/kg/injection, schedule: Q01DX009 (ip), vehicle: saline with Tween-80.

“And” between values parts separate entries of the source, which are not always exact repeats. Identical values can stand only once. Inconclusive results and toxic doses are left out.

Consider `N[C@H](C(=O)O)[C@H]1ON=C(Cl)[C@@H]1O`, for which the T/C is 105 % of control (dose: 0.5 mg/kg/injection, schedule: Q01DX009 (ip), vehicle: saline with Tween-80); 105 % of control (dose: 1.0 mg/kg/injection, schedule: Q01DX009 (ip), vehicle: saline with Tween-80); 117 % of control (dose: 2.0 mg/kg/injection, schedule: Q01DX009 (ip), vehicle: saline with Tween-80); 160 % of control (dose: 6.25 mg/kg/injection, schedule: Q01DX009 (ip), vehicle: saline); 160 % of control (dose: 8.0 mg/kg/injection, schedule: Q01DX009 (ip), vehicle: saline); 239 % of control under setting [1]. The T/C was 165 % of control (dose: 12.5 mg/kg/injection, schedule: Q01DX009 (ip), vehicle: saline); 96 % of control (dose: 12.5 mg/kg/injection, schedule: Q04DX003 (ip), vehicle: saline); 168 % of control (dose: 16.0 mg/kg/injection, schedule: Q01DX009 (ip), vehicle: saline); 195 % of control under setting [2]; 195 % of control (dose: 25.0 mg/kg/injection, schedule: Q01DX009 (ip), vehicle: saline); 111 % of control (dose: 25.0 mg/kg/injection, schedule: Q04DX003 (ip), vehicle: saline). The T/C by setting is: (dose: 32.0 mg/kg/injection, schedule: Q01DX009 (ip), vehicle: saline) 167 % of control; (dose: 44.0 mg/kg/injection, schedule: Q01DX009 (ip), vehicle: other) 158 % of control; under setting [3], 188 % of control; (dose: 50.0 mg/kg/injection, schedule: Q01DX009 (ip), vehicle: saline) 215 % of control; (dose: 50.0 mg/kg/injection, schedule: Q04DX003 (ip), vehicle: saline) 111 % of control; (dose: 64.0 mg/kg/injection, schedule: Q01DX009 (ip), vehicle: saline) 193 % of control. In addition, the T/C reads like this: under setting [4], 206 % of control; (dose: 100.0 mg/kg/injection, schedule: Q01DX009 (ip), vehicle: other) 170 % of control; (dose: 100.0 mg/kg/injection, schedule: Q01DX009 (ip), vehicle: saline) 110 % of control; (dose: 128.0 mg/kg/injection, schedule: Q01DX009 (ip), vehicle: saline) 228 % of control; (dose: 200.0 mg/kg/injection, schedule: Q01DX009 (ip), vehicle: saline) 90 % of control; (dose: 250.0 mg/kg/injection, schedule: Q01DX009 (ip), vehicle: saline) 192 % of control. For the same compound, the T/C (dose: 256.0 mg/kg/injection, schedule: Q01DX009 (ip), vehicle: saline) was 270 % of control and the T/C under setting [5] is 238 % of control.

On to `O=NN(CCCl)C(=O)c1cc(Cl)cc(Cl)c1`, for which the T/C (dose: 25.0 mg/kg/injection, schedule: Q04DX003 (ip), vehicle: saline with Tween-80) is 104 % of control; the T/C under setting [6] is 104 % of control; the T/C under setting [7] is 100 % of control and 118 % of control; the T/C under setting [8] was 100 % of control and 104 % of control; the T/C under setting [9] was 100 % of control.

Turning to `CC(=O)OCC(=O)[C@@]1(O)CC[C@H]2[C@@H]3C=C(C)C4=CC(=O)CC[C@]4(C)[C@H]3[C@@H](O)C[C@@]21C`, the T/C under setting [10] is 108 % of control; the T/C under setting [7] was 95 % of control; the T/C under setting [11] was 91 % of control; the T/C under setting [8] is 95 % of control; the T/C (dose: 400.0 mg/kg/injection, schedule: Q01DX009 (ip), vehicle: saline with Tween-80) is 108 % of control; the T/C under setting [9] is 95 % of control.

Turning to `Oc1ccc(Br)c2cccnc12`, the T/C reads like this: under setting [2], 91 % of control; under setting [3], 111 % of control; under setting [4], 98 % of control; under setting [12], 102 % of control; (dose: 200.0 mg/kg/injection, schedule: Q01DX010 (ip), vehicle: saline) 100 % of control.

`O=S1(=O)C=C(c2ccccc2)C(c2ccccc2)=C1`: the T/C was 104 % of control (dose: 22.0 mg/kg/injection, schedule: Q04DX003 (ip), vehicle: saline); 113 % of control (dose: 33.0 mg/kg/injection, schedule: Q04DX003 (ip), vehicle: saline); 118 % of control (dose: 50.0 mg/kg/injection, schedule: Q04DX003 (ip), vehicle: saline sonified); 150 % of control (dose: 75.0 mg/kg/injection, schedule: Q04DX003 (ip), vehicle: saline sonified); 122 % of control (dose: 75.0 mg/kg/injection, schedule: Q04DX003 (ip), vehicle: saline).

As to `O=NN(CCBr)C(=O)NCCBr`, the T/C runs as follows: (dose: 30.0 mg/kg/injection, schedule: Q01DX009 (ip), vehicle: gum acacia) 158 % of control; (dose: 44.0 mg/kg/injection, schedule: Q01DX009 (ip), vehicle: gum acacia) 158 % of control; (dose: 50.0 mg/kg/injection, schedule: Q01DX009 (ip), vehicle: gum acacia) 196 % of control; (dose: 67.0 mg/kg/injection, schedule: Q01DX009 (ip), vehicle: gum acacia) 169 % of control and 191 % of control; (dose: 67.0 mg/kg/injection, schedule: Q04DX003 (ip), vehicle: gum acacia) 165 % of control; under setting [4], 112 % of control. Besides, the T/C is 192 % of control and 200 % of control (dose: 100.0 mg/kg/injection, schedule: Q01DX009 (ip), vehicle: gum acacia); 173 % of control (dose: 100.0 mg/kg/injection, schedule: Q04DX003 (ip), vehicle: gum acacia); 118 % of control (dose: 100.0 mg/kg/injection, schedule: Q04DX003 (ip), vehicle: saline); 226 % of control (dose: 150.0 mg/kg/injection, schedule: Q01DX009 (ip), vehicle: gum acacia); 230 % of control (dose: 150.0 mg/kg/injection, schedule: Q04DX003 (ip), vehicle: gum acacia); 154 % of control under setting [12]. The T/C was 170 % of control (dose: 400.0 mg/kg/injection, schedule: Q01DX009 (ip), vehicle: Klucel (hydroxypropylcellulose) (HPC)) and 190 % of control under setting [5].

Consider `O=C(CCC(=O)[O][Sn]([c]1ccccc1)([c]1ccccc1)[c]1ccccc1)[O][Sn]([c]1ccccc1)([c]1ccccc1)[c]1ccccc1`, for which the T/C runs as follows: (dose: 0.39 mg/kg/injection, schedule: Q01DX009 (ip), vehicle: Klucel (hydroxypropylcellulose) (HPC)) 113 % of control; (dose: 0.78 mg/kg/injection, schedule: Q01DX009 (ip), vehicle: Klucel (hydroxypropylcellulose) (HPC)) 95 % of control; (dose: 1.56 mg/kg/injection, schedule: Q01DX009 (ip), vehicle: Klucel (hydroxypropylcellulose) (HPC)) 95 % of control; (dose: 3.12 mg/kg/injection, schedule: Q01DX009 (ip), vehicle: Klucel (hydroxypropylcellulose) (HPC)) 100 % of control and 104 % of control; under setting [1], 120 % of control; (dose: 40.0 mg/kg/injection, schedule: Q04DX003 (ip), vehicle: Klucel (hydroxypropylcellulose) (HPC)) 104 % of control.

On to `CC1CCC2CON(C(C)(C)C)C2C1` (configuration not stated), for which the T/C is, setting by setting: under setting [13], 100 % of control; under setting [10], 100 % of control.

As to `CC(=O)NS(=O)(=O)c1ccc(NC(=O)c2ccccc2C(=O)O)cc1`, the T/C under setting [6] was 100 % of control, the T/C under setting [7] is 100 % of control and the T/C under setting [8] is 100 % of control.

For `O=c1[nH]nc(NCCO)c2ccccc12`, the T/C reads like this: under setting [13], 112 % of control; under setting [10], 91 % of control; under setting [11], 102 % of control.

Take `CCC(NC(N)=O)C(CC)NC(N)=O` (configuration not stated): the T/C is, setting by setting: (dose: 25.0 mg/kg/injection, schedule: Q01DX009 (ip), vehicle: saline with Tween-80) 106 % of control; under setting [13], 120 % of control and 123 % of control.
